Starred links: 1 amine or outer side, 2 acyl side, 3 side chain; linkers in the order of their positions; H or OH if unused. Positions of bridges follow the written chain, without caps; N, C: chain ends. Non-standard residues stand in square brackets, D forms with d. Residues, ends and D or L forms follow the SMILES beside them. Ala(1H-tetrazol-5-yl) = N[C@@H](Cc1nnn[nH]1)C(=O)O; Trp(7-aza) = N[C@@H](Cc1c[nH]c2ncccc12)C(=O)O; hPhe(3-Cl) = N[C@@H](CCc1cccc(Cl)c1)C(=O)O; 2Nal = N[C@@H](Cc1ccc2ccccc2c1)C(=O)O; mXylylene = c1cc(C[*:1])cc(C[*:2])c1; Chg = N[C@H](C(=O)O)C1CCCCC1; Tle = CC(C)(C)[C@H](N)C(=O)O; Ac5c = NC1(C(=O)O)CCCC1; Nva = CCC[C@H](N)C(=O)O; Thp = NC1(C(=O)O)CCOCC1

What is called IC50 is the midpoint of a concentration-inhibition curve.

In the first assay the target is C5 (Homo sapiens, UniProt P01031). Description: Alternative human hemolysis assay using C5 depleted sera and purified human C5. It is filed as cell-based. The arrangement: purchased Complement Technology, Tyler, Tex. As to conditions: 1.5% human C5 depleted sera, 0.5 nM purified human C5.
Sequence of C5 (P01031 678-1676 limits assumed): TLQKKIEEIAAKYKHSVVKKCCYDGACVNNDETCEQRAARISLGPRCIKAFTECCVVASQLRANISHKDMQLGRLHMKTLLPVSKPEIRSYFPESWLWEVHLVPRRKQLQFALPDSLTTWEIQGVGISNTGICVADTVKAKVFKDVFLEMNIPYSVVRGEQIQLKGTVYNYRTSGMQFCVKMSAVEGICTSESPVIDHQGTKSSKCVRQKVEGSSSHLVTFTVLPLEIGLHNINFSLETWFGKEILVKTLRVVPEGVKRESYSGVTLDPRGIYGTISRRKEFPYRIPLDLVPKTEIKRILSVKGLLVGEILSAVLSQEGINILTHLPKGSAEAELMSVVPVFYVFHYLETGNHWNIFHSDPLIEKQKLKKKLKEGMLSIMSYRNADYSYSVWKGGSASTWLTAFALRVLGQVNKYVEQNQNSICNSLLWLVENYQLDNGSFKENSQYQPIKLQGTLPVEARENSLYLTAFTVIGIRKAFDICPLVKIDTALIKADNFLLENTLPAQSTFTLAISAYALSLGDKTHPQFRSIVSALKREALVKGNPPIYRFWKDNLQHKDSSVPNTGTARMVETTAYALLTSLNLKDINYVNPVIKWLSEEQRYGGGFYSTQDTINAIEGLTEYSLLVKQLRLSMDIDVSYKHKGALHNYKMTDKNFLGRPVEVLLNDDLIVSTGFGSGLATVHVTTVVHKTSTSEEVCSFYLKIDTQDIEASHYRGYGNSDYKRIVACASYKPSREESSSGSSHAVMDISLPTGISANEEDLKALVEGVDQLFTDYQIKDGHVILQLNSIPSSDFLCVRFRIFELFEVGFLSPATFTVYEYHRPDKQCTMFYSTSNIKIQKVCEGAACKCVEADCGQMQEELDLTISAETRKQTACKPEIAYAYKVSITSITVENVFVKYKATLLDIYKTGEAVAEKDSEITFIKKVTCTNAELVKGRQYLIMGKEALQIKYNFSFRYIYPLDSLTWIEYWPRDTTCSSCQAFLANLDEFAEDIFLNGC
Sequence of C5 (P01031 19-673 limits assumed): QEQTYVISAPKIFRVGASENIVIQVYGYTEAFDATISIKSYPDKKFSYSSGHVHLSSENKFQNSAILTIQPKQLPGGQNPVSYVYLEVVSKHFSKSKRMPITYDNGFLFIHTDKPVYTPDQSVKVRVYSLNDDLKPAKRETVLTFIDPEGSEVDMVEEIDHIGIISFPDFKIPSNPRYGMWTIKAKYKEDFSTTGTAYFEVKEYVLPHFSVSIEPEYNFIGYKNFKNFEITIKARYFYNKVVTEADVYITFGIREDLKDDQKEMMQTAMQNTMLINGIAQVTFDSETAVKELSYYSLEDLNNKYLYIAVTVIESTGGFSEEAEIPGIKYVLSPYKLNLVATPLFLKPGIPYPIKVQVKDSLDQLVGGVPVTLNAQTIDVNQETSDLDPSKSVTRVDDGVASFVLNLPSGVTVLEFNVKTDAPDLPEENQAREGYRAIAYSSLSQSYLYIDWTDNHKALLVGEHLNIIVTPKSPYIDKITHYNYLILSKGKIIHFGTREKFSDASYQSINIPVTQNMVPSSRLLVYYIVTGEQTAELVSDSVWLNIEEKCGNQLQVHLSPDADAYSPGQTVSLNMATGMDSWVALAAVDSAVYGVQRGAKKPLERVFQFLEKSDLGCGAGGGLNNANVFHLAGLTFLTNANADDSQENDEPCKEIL
Compound `CCC[C@H](NC(=O)[C@@H](NC(=O)[C@@H]1CCCN1C(=O)[C@H](Cc1c[nH]c2ccccc12)NC(=O)[C@H](CCC(=O)O)NC(=O)[C@H](Cc1c[nH]c2ncccc12)NC(=O)[C@H](Cc1ccc(O)cc1)NC(=O)[C@@H](NC(=O)[C@H](CC(=O)O)NC(=O)[C@@H]1CSCc2cccc(c2)CSC[C@H](NC(C)=O)C(=O)N[C@@H](C(C)C)C(=O)N[C@@H](CCC(=O)O)C(=O)N[C@@H](CCCNC(=N)N)C(=O)N[C@@H](Cc2ccccc2)C(=O)N1)C(C)(C)C)C1CCCCC1)C(=O)O` [Compound R3177, [mXylyl(1,6)]Ac-C-V-E-R-F-C-D-Tbg-Y-azaTrp-E-W-P-Chg-Nvl] (Ac-CVERFCD[Tle]Y[Trp(7-aza)]EWP[Chg][Nva]-OH; linker 1-6 via mXylylene) showed an IC50 of 0.012 µM.

Staying with this assay, now noted: […] human C5 depleted sera, 0.5 nM purified human C5.
For `CCC[C@H](NC(=O)[C@@H](NC(=O)[C@@H]1CCCN1C(=O)[C@H](Cc1ccc(O)cc1)NC(=O)[C@H](CCC(=O)O)NC(=O)[C@H](Cc1c[nH]c2ncccc12)NC(=O)[C@H](Cc1ccc(O)cc1)NC(=O)[C@@H](NC(=O)[C@H](Cc1nnn[nH]1)NC(=O)[C@@H]1CC(=O)NCCCC[C@H](NC(C)=O)C(=O)N[C@@H](C(C)C)C(=O)N[C@@H](CCC(=O)O)C(=O)N[C@@H](CCCNC(=N)N)C(=O)N[C@@H](Cc2ccccc2)C(=O)N1)C(C)(C)C)C1CCCCC1)C(=O)O` [Compound R3174, [cyclo(1,6)]Ac-K-V-E-R-F-D-Asp(T)-Tbg-Y-azaTrp-E-Y-P-Chg-Nvl] (Ac-KVERFD[Ala(1H-tetrazol-5-yl)][Tle]Y[Trp(7-aza)]EYP[Chg][Nva]-OH; lactam 1-6; C-terminus assumed), the IC50 came to 0.0023 µM. This lies in the single-digit nanomolar range.
On the same count and under the same terms, the figure for `CCC[C@H](NC(=O)[C@@H](NC(=O)[C@@H]1CCCN1C(=O)[C@H](CCc1cccc(Cl)c1)NC(=O)[C@H](CCC(=O)O)NC(=O)[C@H](Cc1c[nH]c2ncccc12)NC(=O)[C@H](Cc1ccc(O)cc1)NC(=O)[C@@H](NC(=O)[C@H](CC(=O)O)NC(=O)[C@@H]1CSCc2cccc(c2)CSC[C@H](NC(C)=O)C(=O)N[C@@H](C(C)C)C(=O)N[C@@H](CCC(=O)O)C(=O)N[C@@H](CCCNC(=N)N)C(=O)N[C@@H](Cc2ccccc2)C(=O)N1)C(C)(C)C)C1CCCCC1)C(=O)O` [Compound R3179, [mXylyl(1,6)]Ac-C-V-E-R-F-C-D-Tbg-Y-azaTrp-E-(m-Cl-homo)Phe-P-Chg-Nvl] (Ac-CVERFCD[Tle]Y[Trp(7-aza)]E[hPhe(3-Cl)]P[Chg][Nva]-OH; linker 1-6 via mXylylene; C-terminus assumed) is 0.083 µM.
Still for that read-out and setting: the figure for `CCC[C@H](NC(=O)[C@@H](NC(=O)[C@@H]1CCCN1C(=O)[C@H](Cc1ccc2ccccc2c1)NC(=O)[C@H](CCC(=O)O)NC(=O)[C@H](Cc1c[nH]c2ncccc12)NC(=O)[C@H](Cc1ccc(O)cc1)NC(=O)[C@@H](NC(=O)[C@H](CC(=O)O)NC(=O)[C@@H]1CSCc2cccc(c2)CSC[C@H](NC(C)=O)C(=O)N[C@@H](C(C)C)C(=O)N[C@@H](CCC(=O)O)C(=O)N[C@@H](CCCNC(=N)N)C(=O)N[C@@H](Cc2ccccc2)C(=O)N1)C(C)(C)C)C1CCCCC1)C(=O)O` [Compound R3180, [mXylyl(1,6)]Ac-C-V-E-R-F-C-D-Tbg-Y-azaTrp-E-2Nal-P-Chg-Nvl] (Ac-CVERFCD[Tle]Y[Trp(7-aza)]E[2Nal]P[Chg][Nva]-OH; linker 1-6 via mXylylene; C-terminus assumed) is 0.029 µM; for `CCC[C@H](NC(=O)[C@@H](NC(=O)[C@@H]1CCCN1C(=O)[C@H](Cc1ccc(O)cc1)NC(=O)[C@H](CCC(=O)O)NC(=O)[C@H](Cc1cccc(CN)c1)NC(=O)[C@H](Cc1ccc(O)cc1)NC(=O)[C@@H](NC(=O)[C@H](CC(=O)O)NC(=O)[C@@H]1CSCc2cccc(c2)CSC[C@H](NC(C)=O)C(=O)N[C@@H](C(C)C)C(=O)N[C@@H](CCC(=O)O)C(=O)N[C@@H](CCCNC(=N)N)C(=O)N[C@@H](Cc2ccccc2)C(=O)N1)C(C)(C)C)C1CCCCC1)C(=O)O` [Compound R3181, [mXylyl(1,6)]Ac-C-V-E-R-F-C-D-Tbg-Y-(3-aminomethyl)Phe-E-Y-P-Chg-Nvl] it is 1.5 µM.
The same measure, in the same setting: the figure for `CCC[C@H](NC(=O)[C@@H](NC(=O)[C@@H]1CCCN1C(=O)[C@H](Cc1ccc(O)cc1)NC(=O)[C@H](CCC(=O)O)NC(=O)[C@H](Cc1c[nH]c2ncccc12)NC(=O)[C@H](Cc1ccc(O)cc1)NC(=O)[C@@H](NC(=O)C1(NC(=O)[C@@H]2CSCc3cccc(c3)CSC[C@H](NC(C)=O)C(=O)N[C@@H](C(C)C)C(=O)N[C@@H](CCC(=O)O)C(=O)N[C@@H](CCCNC(=N)N)C(=O)N[C@@H](Cc3ccccc3)C(=O)N2)CCCC1)C(C)(C)C)C1CCCCC1)C(=O)O` [Compound R3185, [mXylyl(1,6)]Ac-C-V-E-R-F-C-Cle-Tbg-Y-azaTrp-E-Y-P-Chg-Nvl] (Ac-CVERFC[Ac5c][Tle]Y[Trp(7-aza)]EYP[Chg][Nva]-OH; linker 1-6 via mXylylene; C-terminus assumed) is 0.0125 µM; for `CCC[C@H](NC(=O)[C@@H](NC(=O)[C@@H]1CCCN1C(=O)[C@H](Cc1ccc(O)cc1)NC(=O)[C@H](CCC(=O)O)NC(=O)[C@H](Cc1c[nH]c2ncccc12)NC(=O)[C@H](Cc1ccc(O)cc1)NC(=O)[C@@H](NC(=O)C1(NC(=O)[C@@H]2CSCc3cccc(c3)CSC[C@H](NC(C)=O)C(=O)N[C@@H](C(C)C)C(=O)N[C@@H](CCC(=O)O)C(=O)N[C@@H](CCCNC(=N)N)C(=O)N[C@@H](Cc3ccccc3)C(=O)N2)CCOCC1)C(C)(C)C)C1CCCCC1)C(=O)O` [Compound R3186, [mXylyl(1,6)]Ac-C-V-E-R-F-C-(Ac-Pyran)-Tbg-Y-azaTrp-E-Y-P-Chg-Nvl] (Ac-CVERFC[Thp][Tle]Y[Trp(7-aza)]EYP[Chg][Nva]-OH; linker 1-6 via mXylylene; C-terminus assumed) it is 0.018 µM; for `CCCCCCCCCCCCCCCC(=O)NCCCC[C@H](NC(=O)[C@@H](NC(=O)[C@@H]1CCCN1C(=O)[C@H](Cc1ccc(O)cc1)NC(=O)[C@H](CCC(=O)O)NC(=O)[C@H](Cc1c[nH]c2ncccc12)NC(=O)[C@H](Cc1ccc(O)cc1)NC(=O)[C@@H](NC(=O)[C@H](CC(=O)O)NC(=O)[C@@H]1CSCc2cccc(c2)CSC[C@H](NC(C)=O)C(=O)N[C@@H](C)C(=O)N[C@@H](CCC(=O)O)C(=O)N[C@@H](CCCNC(=N)N)C(=O)N[C@@H](Cc2ccccc2)C(=O)N1)C(C)(C)C)c1ccccc1)C(=O)O` [Compound R3189, [mXylyl(1,6)]Ac-C-A-E-R-F-C-D-Tbg-Y-azaTrp-E-Y-P-Phg-(Lys-C16)] it is 0.0815 µM.
Turning to `CCCCCCCCCCCCCCCC(=O)NCCCC[C@H](NC(=O)[C@@H](NC(=O)[C@@H]1CCCN1C(=O)[C@H](Cc1ccc(O)cc1)NC(=O)[C@H](CCC(=O)O)NC(=O)[C@H](Cc1c[nH]c2ccccc12)NC(=O)[C@H](Cc1ccc(O)cc1)NC(=O)[C@@H](NC(=O)[C@H](CC(=O)O)N(C)C(=O)[C@@H]1CC(=O)NCCCC[C@H](NC(C)=O)C(=O)N[C@@H](C(C)C)C(=O)N[C@@H](CCC(=O)O)C(=O)N[C@@H](CCCNC(=N)N)C(=O)N[C@@H](Cc2ccccc2)C(=O)N1)C(C)(C)C)C1CCCCC1)C(=O)O` [Compound R3195, [cyclo(1,6)]Ac-K-V-E-R-F-D-(N—Me)D-Tbg-Y-W-E-Y-P-Chg-(Lys-C16)], half-maximal inhibition (IC50) required 0.0625 µM.
Same read-out and setting: the figure for `CC(=O)N[C@H]1CCCCNC(=O)C[C@@H](C(=O)N(C)[C@@H](CC(=O)O)C(=O)N[C@H](C(=O)N[C@@H](Cc2ccc(O)cc2)C(=O)N[C@@H](Cc2c[nH]c3ccccc23)C(=O)N[C@@H](CCC(=O)O)C(=O)N[C@@H](Cc2ccc(O)cc2)C(=O)N2CCC[C@H]2C(=O)N[C@H](C(=O)N[C@@H](CCCCN)C(=O)O)C2CCCCC2)C(C)(C)C)NC(=O)[C@H](Cc2ccccc2)NC(=O)[C@H](CCCNC(=N)N)NC(=O)[C@H](CCC(=O)O)NC(=O)[C@H](C(C)C)NC1=O` [Compound R3196, [cyclo(1,6)]Ac-K-V-E-R-F-D-(N—Me)D-Tbg-Y-W-E-Y-P-Chg-K] is 0.003 µM.
Still for that read-out and setting: the figure for `CC(=O)N[C@H]1CCCCNC(=O)C[C@@H](C(=O)N(C)[C@@H](CC(=O)O)C(=O)N[C@H](C(=O)N[C@@H](Cc2ccc(O)cc2)C(=O)N[C@@H](Cc2c[nH]c3ccccc23)C(=O)N[C@@H](CCC(=O)O)C(=O)N[C@@H](Cc2ccc(O)cc2)C(=O)N2CCC[C@H]2C(=O)N[C@H](C(=O)N[C@@H](CCCCNC(CC(C)C)=C2C(=O)CC(C)(C)CC2=O)C(=O)O)C2CCCCC2)C(C)(C)C)NC(=O)[C@H](Cc2ccccc2)NC(=O)[C@H](CCCNC(=N)N)NC(=O)[C@H](CCC(=O)O)NC(=O)[C@H](C(C)C)NC1=O` [Compound R3197, [cyclo(1,6)]Ac-K-V-E-R-F-D-(N—Me)D-Tbg-Y-W-E-Y-P-Chg-K14] is 0.004 µM; for `CCCCCCCCCCCCCCCC(=O)NCCCC[C@H](NC(=O)[C@@H](NC(=O)[C@@H]1CCCN1C(=O)[C@H](Cc1ccc(O)cc1)NC(=O)[C@H](CCC(=O)O)NC(=O)[C@H](Cc1c[nH]c2ncccc12)NC(=O)[C@H](Cc1ccc(O)cc1)NC(=O)[C@@H](NC(=O)[C@H](CC(=O)O)N(C)C(=O)[C@@H]1CSSCCC(=O)N[C@H](C)C(=O)N[C@@H](CCC(=O)O)C(=O)N[C@@H](CCCNC(=N)N)C(=O)N[C@@H](Cc2ccccc2)C(=O)N1)C(C)(C)C)C1CCCCC1)C(=O)O` [Compound R3199, [cyclo(1,6)](desamino)C-(D-Ala)-E-R-F-C-(N—Me)D-Tbg-Y-azaTrp-E-Y-P-Chg-(Lys-C16)] it is 0.112 µM.
On the same count and under the same terms, under `CCCCCCCCCCCCCCCC(=O)NCCCC[C@H](NC(=O)C(C)(C)NC(=O)[C@@H]1CCCN1C(=O)[C@H](Cc1ccc(O)cc1)NC(=O)[C@H](CCC(=O)O)NC(=O)[C@H](Cc1c[nH]c2ncccc12)NC(=O)[C@H](Cc1ccc(O)cc1)NC(=O)[C@@H](NC(=O)[C@H](CC(=O)O)N(C)C(=O)[C@@H]1CC(=O)NCCCC[C@H](NC(C)=O)C(=O)N[C@@H](C(C)C)C(=O)N[C@@H](CCC(=O)O)C(=O)N[C@@H](CCCNC(=N)N)C(=O)N[C@@H](Cc2ccccc2)C(=O)N1)C(C)(C)C)C(=O)O` [Compound R3200, [cyclo(1,6)]Ac-K-V-E-R-F-D-(N—Me)D-Tbg-Y-azaTrp-E-Y-P-Aib-(Lys-C16)] stands 0.0885 µM.

The record behind these values is patent US11707503B2, “Modulators of complement activity” (Ra Pharmaceuticals, Inc., priority 2015, dated 2023).
